The source of these data is patent US7842808B2, “Anti-migraine spirocycles” (Bristol-Myers Squibb Company, priority 2002, dated 2010).

The target in test [1] is T1, human CGRP receptor (SK-N-MC cells) (Homo sapiens, UniProt O60894+Q16602).
T1 construct: SK-N-MC cells that endogenously express the human CGRP receptor; endogenous in cells; host or cells: SK-N-MC cells
Kind of test: Schild analysis of CGRP stimulated cAMP production. The format is cell-based. The conditions noted are these: for slope: Schild plot slope. (Changes in cAMP serve as a functional read-out for many G protein-coupled receptors.)

Test [2] addresses T1, human CGRP receptor (SK-N-MC cells). Kind of test: Cyclic AMP Assay, functional antagonism of CGRP-induced cyclic AMP formation. The conditions noted are these: SK-N-MC cells, 0.3 nM CGRP; read-out: cAMP Function IC50. The format is cell-based. Put shortly:
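SK-N-MC cells, which endogenously express human CGRP receptor, stimulated with 0.3 nM CGRP with or without compound for 30 min at room temperature. Cellular cAMP extracted by lysis and quantified by SPA radioimmunoassay; IC50 from inhibition of CGRP-induced cAMP.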

For test [3], the target named is T2, CGRP receptor (SK-N-MC cell membranes) (Homo sapiens, UniProt O60894+Q16602).
T2 construct: endogenous in cells; host or cells: SK-N-MC cells (membrane homogenate)
Put plainly: CGRP Binding Assay ([125I]-CGRP radioligand binding, SK-N-MC homogenate). The conditions noted are these: displacement of [125I]-CGRP, SK-N-MC homogenate; read-out: CGRP binding IC50.

T1 sequence (Q16602 23-461): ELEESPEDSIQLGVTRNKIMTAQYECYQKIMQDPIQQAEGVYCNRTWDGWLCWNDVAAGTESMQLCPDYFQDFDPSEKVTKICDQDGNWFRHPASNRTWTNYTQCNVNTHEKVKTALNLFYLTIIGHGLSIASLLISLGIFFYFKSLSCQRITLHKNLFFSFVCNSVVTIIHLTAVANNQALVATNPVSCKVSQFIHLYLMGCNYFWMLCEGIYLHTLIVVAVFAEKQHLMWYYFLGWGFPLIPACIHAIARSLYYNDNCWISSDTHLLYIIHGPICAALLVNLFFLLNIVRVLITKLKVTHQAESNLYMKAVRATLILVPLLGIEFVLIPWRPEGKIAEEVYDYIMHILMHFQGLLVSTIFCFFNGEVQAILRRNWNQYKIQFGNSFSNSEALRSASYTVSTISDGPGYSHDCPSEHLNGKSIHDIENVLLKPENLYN
T1 sequence (O60894 27-148): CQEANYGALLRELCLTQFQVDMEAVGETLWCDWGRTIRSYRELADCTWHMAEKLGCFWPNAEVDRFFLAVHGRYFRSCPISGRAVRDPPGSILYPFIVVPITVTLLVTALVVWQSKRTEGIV
T2 sequence (Q16602 23-461): as the sequence (Q16602 23-461) above
T2 sequence (O60894 27-148): as the sequence (O60894 27-148) above

Regarding `Cc1cc(CC(NC(=O)N2CCC(N3Cc4ccccc4NC3=O)CC2)C(=O)N2CCC(N3CCCCC3)CC2)cc2cn[nH]c12` (racemic) [Example 16, (±)-4-(2-Oxo-1,4-dihydro-2H-quinazolin-3-yl)-piperidine-1-carboxylic acid[2-[1,4′]bipiperidinyl-1′-yl-1-(7-methyl-1H-indazol-5-ylmethyl)-2-oxo-ethyl]-amide], in test [1], the slope was determined as 1.3. In addition, the concentration for half-maximal inhibition (IC50) in test [2] and in test [3] was < 10 nM in each case.

For `Cc1cc(CC(CC(=O)N2CCC(N3Cc4ccccc4NC3=O)CC2)C(=O)N2CCC(N3CCCCC3)CC2)cc2cn[nH]c12` (racemic) [Example 69, (±)-1-[1,4′]Bipiperidinyl-1′-yl-2-(7-methyl-1H-indazol-5-ylmethyl)-4-[4-(2-oxo-1,4-dihydro-2H-quinazolin-3-yl)-piperidin-1-yl]-butane-1,4-dione], in test [1] (Schild analysis, dissociation constant of the antagonist, read-out: Kb), the antagonist dissociation constant (Kb) (commonly the equilibrium dissociation constant of an antagonist, usually derived from a functional assay) was determined as 0.016 nM. The compound further gave a slope in test [1] of 1. Besides, the concentration for half-maximal inhibition (IC50) in test [2] and in test [3] was < 10 nM each time.
